Earlier results, collected in patent US6803186B2, “Compositions and methods for increasing amino acid absorption in mammals” (The IAMS Company, priority 2001, dated 2004).
Square brackets hold non-standard residues; d marks the D form. Peptide text beside a SMILES is read from it. Sar = CNCC(=O)O

Target: T1, PepT1-expressing Caco-2 cells (Homo sapiens, UniProt P46059)
T1 construct: GlySar uptake by the PepT1-expressing Caco-2 cells; host or cells: Caco-2 cells
T1 sequence (P46059 1-708): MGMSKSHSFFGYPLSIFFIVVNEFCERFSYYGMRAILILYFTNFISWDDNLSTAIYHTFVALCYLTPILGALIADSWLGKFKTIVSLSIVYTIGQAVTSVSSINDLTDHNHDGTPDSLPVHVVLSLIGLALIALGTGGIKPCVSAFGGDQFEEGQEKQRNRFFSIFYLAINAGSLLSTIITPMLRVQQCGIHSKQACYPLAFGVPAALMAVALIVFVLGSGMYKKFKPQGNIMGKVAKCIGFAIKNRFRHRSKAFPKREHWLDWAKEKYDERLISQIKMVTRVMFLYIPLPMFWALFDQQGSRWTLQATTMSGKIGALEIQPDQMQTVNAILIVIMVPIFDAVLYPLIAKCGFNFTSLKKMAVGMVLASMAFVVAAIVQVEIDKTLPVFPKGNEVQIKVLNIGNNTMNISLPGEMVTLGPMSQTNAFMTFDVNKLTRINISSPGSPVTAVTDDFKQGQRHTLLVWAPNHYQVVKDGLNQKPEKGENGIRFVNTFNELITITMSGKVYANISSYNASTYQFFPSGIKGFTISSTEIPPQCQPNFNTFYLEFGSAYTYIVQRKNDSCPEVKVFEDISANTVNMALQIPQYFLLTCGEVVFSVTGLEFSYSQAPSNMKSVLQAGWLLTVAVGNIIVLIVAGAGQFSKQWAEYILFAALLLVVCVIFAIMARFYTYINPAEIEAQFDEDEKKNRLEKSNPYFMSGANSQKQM
Settings: read-out: reported Km for GlySar uptake; cited from earlier work

For `CN(CC(=O)O)C(=O)CN` [GlySar, glycylsarcosine] (H-Gly-[Sar]-OH), the Km is given as 1100 µM.
